Each compound was assayed against Human immunodeficiency virus type 1 protease (Human immunodeficiency virus 1, UniProt Q72874) (assay: Inhibitory activity against HIV-I protease.).

| Structure (SMILES) | Ki [nM] |
| --- | --- |
| CCC(c1ccccc1)c1c(O)c2c(oc1=O)CCCCCCC2 (stereo unspecified) | 58.3 |
| OC1=C(C(c2ccccc2)C2CC2)COC2=C1CCCCCCC2 (stereo unspecified) | 11.7 |
| CCCC(=O)Nc1cccc(C(c2c(O)c3c(oc2=O)CCCCCC3)C2CC2)c1 (stereo unspecified) | 24 |
| CCCCC1CCCCCCc2c1oc(O)c(C(c1ccccc1)C1CC1)c2=O (stereo unspecified) | 31 |
| O=c1c2c(oc(O)c1C(c1ccccc1)C1CC1)C(CC1CC1)CCCCC2 (stereo unspecified) | 24 |
| CC(C)CC1CCCCCCc2c1oc(O)c(C(c1ccccc1)C1CC1)c2=O (stereo unspecified) | 30 |
| O=C(Nc1cccc(C(c2c(O)oc3c(c2=O)CCCCCC3)C2CC2)c1)c1ccc(F)cc1 (stereo unspecified) | 55 |
| CC(C)(C)OC(=O)NCC(=O)Nc1cccc(C(c2c(O)c3c(oc2=O)CCCCCC3)C2CC2)c1 (stereo unspecified) | 5.5 |
| C[C@H](NC(=O)OC(C)(C)C)C(=O)Nc1cccc(C(c2c(O)c3c(oc2=O)CCCCCC3)C2CC2)c1 (stereo partly specified) | 6.9 |
| O=C(/C=C/c1ccccc1)Nc1cccc(C(c2c(O)oc3c(c2=O)CCCCCC3)C2CC2)c1 (stereo unspecified) | 470 |
| CCNC(=O)Nc1cccc(C(c2c(O)c3c(oc2=O)CCCCCC3)C2CC2)c1 (stereo unspecified) | 72 |
| O=C(Cc1ccccc1)Nc1cccc(C(c2c(O)oc3c(c2=O)CCCCCC3)C2CC2)c1 (stereo unspecified) | 33 |
| CCC(c1ccccc1)c1c(O)c2c(oc1=O)C(C)CCCCCC2 (stereo unspecified) | 330 |
| O=C(Nc1cccc(C(c2c(O)oc3c(c2=O)CCCCCC3)C2CC2)c1)c1ccccc1 (stereo unspecified) | 42 |
| CC(C)(C)OC(=O)NCCC(=O)Nc1cccc(C(c2c(O)c3c(oc2=O)CCCCCC3)C2CC2)c1 (stereo unspecified) | 4 |
| O=c1c2c(oc(O)c1C(c1ccccc1)C1CC1)CCCCCC2 (stereo unspecified) | 96 |

| Structure (SMILES) | Ki [nM] |
| --- | --- |
| O=c1c2c(oc(O)c1C(c1ccccc1)C1CC1)C(CC1CC1)CCCCCC2 (stereo unspecified) | 24 |
| CC(C)(C)OC(=O)N1CCC[C@H]1C(=O)Nc1cccc(C(c2c(O)c3c(oc2=O)CCCCCC3)C2CC2)c1 (stereo partly specified) | 43 |
| CCC1CCCCCCc2c1oc(O)c(C(c1ccccc1)C1CC1)c2=O (stereo unspecified) | 33 |
| O=c1c2c(oc(O)c1C(c1ccccc1)C1CC1)C(CC1CCCCO1)CCCCCC2 (stereo unspecified) | 120 |
| CC(C)(C)OC(=O)N[C@@H](Cc1cnc[nH]1)C(=O)Nc1cccc(C(c2c(O)c3c(oc2=O)CCCCCC3)C2CC2)c1 (stereo partly specified) | 3 |
| COCCC1CCCCCc2c1oc(O)c(C(c1ccccc1)C1CC1)c2=O (stereo unspecified) | 28 |
| CC(C)(C)OC(=O)N[C@H](Cc1cnc[nH]1)C(=O)Nc1cccc(C(c2c(O)c3c(oc2=O)CCCCCC3)C2CC2)c1 (stereo partly specified) | 11 |
| CCC(c1ccccc1)c1c(O)c2c(oc1=O)C(Cc1ccccc1)CCCCCC2 (stereo unspecified) | 266 |
| C[C@@H](NC(=O)OC(C)(C)C)C(=O)Nc1cccc(C(c2c(O)c3c(oc2=O)CCCCCC3)C2CC2)c1 (stereo partly specified) | 32 |
| O=c1c2c(oc(O)c1C(C1CC1)C1CC1)CCCCCCC2 | 57 |
| CC(C)(C)OC(=O)NCCCC(=O)Nc1cccc(C(c2c(O)c3c(oc2=O)CCCCCC3)C2CC2)c1 (stereo unspecified) | 14 |
| CC(C)CCC1CCCCCCc2c1oc(O)c(C(c1ccccc1)C1CC1)c2=O (stereo unspecified) | 50 |
| O=C(Nc1ccccc1)Nc1cccc(C(c2c(O)oc3c(c2=O)CCCCCC3)C2CC2)c1 (stereo unspecified) | 450 |
| CCCC1CCCCCCc2c1oc(O)c(C(c1ccccc1)C1CC1)c2=O (stereo in doubt; 11) | 26 |
| CCCC1CCCCCCc2c1oc(O)c(C(c1ccccc1)C1CC1)c2=O (stereo in doubt; 11e) | 9 |
